Measurements from patent publication US11685716B2, “Plant growth inhibiting agent, and plant growth inhibiting method using same” (NATIONAL UNIVERSITY CORPORATION KUMAMOTO UNIVERSITY, priority 2017, dated 2023).

Assays:
Design in all cases: key: 0: No effect; 1: Growth of the root part was inhibited 50% or less compared with non-treated area.; 2: Growth of the root part was inhibited 50% or more compared with non-treated area.; 3: Growth of the root part was substantially inhibited.; 4: Germination was inhibited
thale cress = assay: Plant growth inhibition index, thale cress on agar medium in test tube (Evaluation 8, 9); type: in vivo, thale cress (Col-0, wild-type strain); settings: for Index: Concentration 200 μM, 8 days (Evaluation 9, Table 2)
Description: 0.44% (w/v) Mixed salts for Murashige and Skoog medium (SIGMA), 1% (w/v) sucrose, and 0.05% (w/v) MES were mixed, and pH of the solution was adjusted to pH 5.7 with potassium hydroxide. 1.5% (w/v) Agar was added to the mixture, which was sterilized at 120° C. in an autoclave for 20 minutes. The test compound and dimethylformamide containing 1.5% of polyoxyethylenesorbitan monolaurate for a control experiment, were added at this stage and blended. In addition, the compound was used by adjusting an addition concentration to 200 μM. Four ml each of the medium was dispensed in sterile glass test tube ([…] RIKA GLASS CO., LTD.) to prepare agar medium.
As a plant material, Col-0, which is a wild-type strain of thale cress, was used.
Seeds, after their surfaces were sterilized, were planted on the agar medium, and the growth of the plant was carried out in a plant incubator (CFH-405) under the conditions of an illuminance of 3 at 23° C. with constant light. The plants on the agar medium were grown for 8 days in the chamber.
The plant growth inhibition effect of the compounds was evaluated by conversion to indexes according to the following investigation criteria.

Japanese millet = assay: Seed treatment, plant growth inhibition index (Evaluation 11); type: in vivo
Description: (§1) The compound of the present invention (2 mg) was dissolved in a 1.5% Tween dimethylformamide solution (100 μL) to use as a test chemical solution.
(§2) Eight mL of sterilized water was poured to a cherry cup (100Φ×45 mm) lined with a filter paper, subsequently 81.1 μL of the sterilized water was removed, and 81.1 μL of the test chemical solution was added such that a final concentration of the compound was 800 μM.
(§3) Further, cherry cups were similarly prepared such that a final concentration of the compound was 200 μM.
(§4) Seeds (Japanese millet: 3 grains, velvet leaf: 6 grains, Ragweed: 8 grains, morning glory: 2 grains) were planted on the filter paper in the cherry cups, followed by growing the plants in a thermostatic chamber at 25° C. under a light-dark cycle in which a light period is 12 hours and a dark period is 12 hours for 6 days.
(§5) In addition, with regards to the compound (9a) and the compound (9b), the plants were tested for 7 days.
(§6) Plant growth inhibition effects of the compounds were evaluated by conversion to indexes according to the following investigation criteria.

Ragweed = assay: as above; type: in vivo
Description: as §1, §2, §3, §4, §5, §6

morning glory = assay: as above; type: in vivo
Description: as §1, §2, §3, §4, §5, §6

velvet leaf = assay: as above; type: in vivo
Description: as §1, §2, §3, §4, §5, §6

[1] = 200 μM, 6 days (9a, 9b: 7 days)

| SMILES | Index (thale cress) | plant growth inhibition index, Japanese millet (Japanese millet; [1]) | plant growth inhibition index, Japanese millet (Japanese millet; 800 μM, 6 days) | plant growth inhibition index, Ragweed (Ragweed; [1]) | plant growth inhibition index, Ragweed (Ragweed; 800 μM, 6 days) | plant growth inhibition index, Morning glory (morning glory; [1]) | plant growth inhibition index, Morning glory (morning glory; 800 μM, 6 days) | plant growth inhibition index, Velvet leaf (velvet leaf; [1]) | plant growth inhibition index, Velvet leaf (velvet leaf; 800 μM, 6 days) | index on the plant growth inhibition effect (thale cress; 200 μM, 8 days (Evaluation 8)) |
| --- | --- | --- | --- | --- | --- | --- | --- | --- | --- | --- |
| CCCCCCCCCOn1cccc1C(=O)N(C)C [Compound 9g] | 3 | 3 (Growth of the stem and leave parts was inhibited 30% or more compared with non-treated area, or growth of the only root part was inhibited 60% or more compared with non-treated area.) | 4 (Growth of the stem and leave parts was inhibited 40% or more compared with non-treated area, or growth of the only root part was inhibited 80% or more compared with non-treated area.) | 5 (Growth of the stem and leave parts was inhibited 50% or more compared with non-treated area, or growth of the only root part was inhibited 100% or more compared with non-treated area.) | 7 (Growth of the stem and leave parts was inhibited 70% or more compared with non-treated area.) | 0 | 0 | 3 (Growth of the stem and leave parts was inhibited 30% or more compared with non-treated area, or growth of the only root part was inhibited 60% or more compared with non-treated area.) | 3 (Growth of the stem and leave parts was inhibited 30% or more compared with non-treated area, or growth of the only root part was inhibited 60% or more compared with non-treated area.) | – |
| O=C(O)c1cccn1OCc1ccc(Oc2ccccc2)cc1 [Compound 8f] | – | 3 (Growth of the stem and leave parts was inhibited 30% or more compared with non-treated area, or growth of the only root part was inhibited 60% or more compared with non-treated area.) | 4 (Growth of the stem and leave parts was inhibited 40% or more compared with non-treated area, or growth of the only root part was inhibited 80% or more compared with non-treated area.) | 0 | 5 (Growth of the stem and leave parts was inhibited 50% or more compared with non-treated area, or growth of the only root part was inhibited 100% or more compared with non-treated area.) | 0 | 0 | 0 | 5 (Growth of the stem and leave parts was inhibited 50% or more compared with non-treated area, or growth of the only root part was inhibited 100% or more compared with non-treated area.) | 3 |
| CCCCCCCCCOn1cccc1C(=O)N1CCOCC1 [Compound 9h] | 3 | 3 (Growth of the stem and leave parts was inhibited 30% or more compared with non-treated area, or growth of the only root part was inhibited 60% or more compared with non-treated area.) | 6 (Growth of the stem and leave parts was inhibited 60% or more compared with non-treated area.) | 0 | 6 (Growth of the stem and leave parts was inhibited 60% or more compared with non-treated area.) | 0 | 4 (Growth of the stem and leave parts was inhibited 40% or more compared with non-treated area, or growth of the only root part was inhibited 80% or more compared with non-treated area.) | 3 (Growth of the stem and leave parts was inhibited 30% or more compared with non-treated area, or growth of the only root part was inhibited 60% or more compared with non-treated area.) | 5 (Growth of the stem and leave parts was inhibited 50% or more compared with non-treated area, or growth of the only root part was inhibited 100% or more compared with non-treated area.) | – |
| CCCCCOn1cc(-c2ccsc2)cc1C(=O)O [Compound 9j] | 2 (Growth of the root part was inhibited 50% or more compared with non-treated area.) | 4 (Growth of the stem and leave parts was inhibited 40% or more compared with non-treated area, or growth of the only root part was inhibited 80% or more compared with non-treated area.) | 3 (Growth of the stem and leave parts was inhibited 30% or more compared with non-treated area, or growth of the only root part was inhibited 60% or more compared with non-treated area.) | 8 (Growth of the stem and leave parts was inhibited 80% or more compared with non-treated area.) | 9 (Growth of the stem and leave parts was inhibited 90% or more compared with non-treated area.) | 3 (Growth of the stem and leave parts was inhibited 30% or more compared with non-treated area, or growth of the only root part was inhibited 60% or more compared with non-treated area.) | 5 (Growth of the stem and leave parts was inhibited 50% or more compared with non-treated area, or growth of the only root part was inhibited 100% or more compared with non-treated area.) | 0 | 5 (Growth of the stem and leave parts was inhibited 50% or more compared with non-treated area, or growth of the only root part was inhibited 100% or more compared with non-treated area.) | – |
| CCCCCOn1cc(-c2cccnc2)cc1C(=O)O [Compound 9i] | 2 (Growth of the root part was inhibited 50% or more compared with non-treated area.) | 3 (Growth of the stem and leave parts was inhibited 30% or more compared with non-treated area, or growth of the only root part was inhibited 60% or more compared with non-treated area.) | 4 (Growth of the stem and leave parts was inhibited 40% or more compared with non-treated area, or growth of the only root part was inhibited 80% or more compared with non-treated area.) | 0 | 4 (Growth of the stem and leave parts was inhibited 40% or more compared with non-treated area, or growth of the only root part was inhibited 80% or more compared with non-treated area.) | 0 | 10 | 0 | 6 (Growth of the stem and leave parts was inhibited 60% or more compared with non-treated area.) | – |
